The target of assay [1] is T1, TRPA1 (mTRPA1) (Mus musculus, UniProt Q8BLA8). The experiment in a line: whole-cell patch clamp, agonist concentration-response in transfected HEK293 cells; no current in untransfected cells. It counts as cell-based. On the technique in general: The patch-clamp technique gives a direct electrical read-out from membranes.
Assay [2] deals with T1, TRPA1 (mTRPA1). The experiment in a line: whole-cell patch clamp, inhibition of AITC-induced current in transfected HEK293 cells. In kind it is cell-based.

T1 sequence (Q8BLA8 whole entry): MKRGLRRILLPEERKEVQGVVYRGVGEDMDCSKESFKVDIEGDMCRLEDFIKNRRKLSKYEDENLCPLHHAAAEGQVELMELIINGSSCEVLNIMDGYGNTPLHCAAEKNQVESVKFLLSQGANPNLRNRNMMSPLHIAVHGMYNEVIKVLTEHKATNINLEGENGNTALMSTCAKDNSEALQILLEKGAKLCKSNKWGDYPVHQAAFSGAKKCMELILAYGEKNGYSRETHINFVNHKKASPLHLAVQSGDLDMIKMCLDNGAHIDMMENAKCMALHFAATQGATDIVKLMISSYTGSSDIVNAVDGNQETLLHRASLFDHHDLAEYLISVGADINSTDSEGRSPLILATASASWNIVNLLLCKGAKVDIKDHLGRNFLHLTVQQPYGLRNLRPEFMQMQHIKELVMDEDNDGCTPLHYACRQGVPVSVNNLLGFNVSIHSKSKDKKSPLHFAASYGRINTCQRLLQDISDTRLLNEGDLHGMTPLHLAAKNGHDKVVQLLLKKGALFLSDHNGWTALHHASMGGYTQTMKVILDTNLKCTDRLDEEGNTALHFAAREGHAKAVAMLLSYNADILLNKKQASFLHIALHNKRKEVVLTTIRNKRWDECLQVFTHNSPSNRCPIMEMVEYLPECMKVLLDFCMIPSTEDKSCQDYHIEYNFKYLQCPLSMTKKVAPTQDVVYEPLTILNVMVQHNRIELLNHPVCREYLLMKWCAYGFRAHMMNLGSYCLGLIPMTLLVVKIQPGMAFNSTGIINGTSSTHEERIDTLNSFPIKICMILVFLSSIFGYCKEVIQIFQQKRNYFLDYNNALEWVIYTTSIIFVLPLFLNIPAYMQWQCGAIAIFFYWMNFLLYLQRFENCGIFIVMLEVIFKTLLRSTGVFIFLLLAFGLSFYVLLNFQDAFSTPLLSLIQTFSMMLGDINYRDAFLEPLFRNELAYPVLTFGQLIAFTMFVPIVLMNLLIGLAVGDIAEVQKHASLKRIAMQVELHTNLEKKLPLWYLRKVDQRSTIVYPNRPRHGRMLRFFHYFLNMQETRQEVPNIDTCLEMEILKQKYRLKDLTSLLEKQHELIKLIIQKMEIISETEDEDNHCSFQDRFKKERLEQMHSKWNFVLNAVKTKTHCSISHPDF

Usually EC50 stands for the concentration at which the effect is half-maximal. A lower EC50 goes with greater potency. On to `C=CCN=C=S` [AITC, allyl isothiocyanate], for which the concentration giving a half-maximal response (EC50) in assay [1] is 61.2 µM.

As a reminder, the IC50 is the concentration that gives 50% inhibition. Lower therefore signals greater potency in that assay. With `Oc1ccc(/C=C/c2cc(O)cc(O)c2)cc1` [RES, 3,5,4’ - trihydroxy-trans-stilbene], in assay [2], the half-inhibitory concentration (IC50) was approximately 0.75 µM.

Values taken from publication PMC3585750, “Modulation of TRP channels by resveratrol and other stilbenoids” (Molecular Pain, 2013).
